Reference: PMC11449769, “Structure-based virtual screening towards the discovery of novel thrombin inhibitors with Anti-HCC activities” (Frontiers in Chemistry, 2024)
Entries after “also recorded” stand apart in the source; their conditions may differ. Counter-ions that a name gives are not always drawn. Like-named read-outs stand apart in the source and are kept apart here.

Assays:
platelets = experiment: Thrombin-induced platelet aggregation in vitro; assay type: cell-based, rats; conditions: drugs 3 mg/mL; thrombin 0.2 U/mL
Experimental: Blood was collected from rats and centrifuged for 10mins to obtain platelet-rich plasma, which was centrifuged again to collected platelets. The platelets were resus-pended and diluted to a concentration of 5 × 10^5/mL. PRP ([…]), and thrombin ([…]) were added to the platelet suspension in each group and incubated at 37°C. After incubation for 120 s, the reaction solution was well-mixed, and the same amount of thrombin ([…]) was added to a final concentration of 0.2 U/mL.

[1] = test system: Hep3B, HepG2, HCCLM3 and HUh7 cells; experiment: Thrombin-induced accelerated proliferation of HCC cells (MTS); assay type: cell-based; conditions: 0.5 μM drug, 0.5 U/mL thrombin; for thrombin-induced accelerated proliferation of tumor cells: 12 and 36 h, 4 liver cancer cell lines
Experimental: Cell lines Hep3B, HepG2, HCCLM3 and HUh7 were purchased from Shanghai Biolaf Biotechnology Co., Ltd., and certified by short tandem repeat profiling and mycoplasma and cell vitality testing. The proliferation rate was determined using a cell proliferation assay kit (TOPSCIENCE, C0005). Briefly, cells were seeded in 96-well plates at a concentration of 10,000 cells/well. MTS was added and incubated at 37°C for 2 h. The absorbance was measured at a wavelength of 490 nm. Three independent experiments were per-formed for each assay.

thrombin [2] = target: T1, thrombin (Homo sapiens, UniProt P00734); experiment: Thrombin time; conditions: drugs 3 mg/mL, thrombin 0.2 U/mL
T1 construct: a light chain A composed of 39 amino acid residues and a heavy chain B composed of 259 amino acid residues; purchased China National Institute for the Control of Pharmaceutical and Biological Products

thrombin [3] = target: T1, thrombin; experiment: In vitro thrombin inhibition assay (fluorogenic substrate Ac-FVR-AMC); assay type: biochemical
Experimental: Lyophilized thrombin, which was purchased from China National Institute for the Control of Pharmaceutical and Biological Products, was reconstituted (5.4 μg/mL), added to the diluted solution, and pre-incubated at 37°C for 10 min.
sample: initial velocity of compound group; VDMSO: initial velocity of blank group, treated with DMSO alone; Inhibition rate (%) = 100/[1 + 10 (LogIC50−X)h], h represents Hill coefficient.

HepG2 tumor = HepG2 tumor model in BALB/c nude mice; conditions: 28 days
Experimental: 20,000 HepG2 cells were injected into the fat pad of each female Balb/c mouse. The long and short diameters of the tumor were measured using a caliper. Medication was started when a rumor size of 100 mm^3 was reached. Sorafenib, ZXX-4, and sorafenib combined with ZXX-4 were administered for 28 days. The body weight and tumor size of the mice were measured twice a week. The mice were sacrificed after 28 days of treatment, the tumor weight was measured, and the number of metastases was counted by Indian ink staining of the lung.

BALB/c nude mice = experiment: Single oral dose tolerance in BALB/c nude mice; assay type: in vivo; conditions: single oral administration of 500 mg/kg, 24 h
[4] = thrombin 5.4 μg/mL, substrate 5 μM, 37°C, read-out: IC50

Row | Molecule | platelet aggregation rate (platelets) | thrombin-induced accelerated proliferation of tumor cells [1] | thrombin time (in words) (thrombin [2]) | IC50 (thrombin [3]; [4]) | also measured
1 | Fc1ccc(Cl)c(COc2cccc3onc(Nc4cccnc4)c23)c1 [ZXX-5, SMS2-IN-2] | less than 50% | reduced to different degrees | significantly prolonged | 45 ± 10 nM | 
2 | C=C(c1ccccc1OCc1cccc(Cl)c1)n1ccnc1 [ZXX-11, CROCONAZOLE] | less than 50% | reduced to different degrees | significantly prolonged |  | IC50 (thrombin [3]): 72 ± 20 nM
3 | NCCOc1cc(C(=O)Nc2cc(OCCN)c3ccccc3n2)nc(C(=O)Nc2cc(OCCN)c3ccccc3n2)c1 [ZXX-20, Pyridostatin Trihydrochloride] |  |  |  | 98 ± 15 nM | 
4 | CCCCCCOC(=O)N=C(N)c1ccc(NCc2nc3cc(C(=O)N(CCC(=O)OCC)c4ccccn4)ccc3n2C)cc1 [dabigatran etexilate, reference compound] | less than 50% | reduced to different degrees |  |  | 
5 | CNC(=O)c1cc(Oc2ccc(NC(=O)Nc3ccc(Cl)c(C(F)(F)F)c3)cc2)ccn1 [sorafenib, reference compound] |  |  |  |  | tumor weight (HepG2 tumor; ZXX-4 50 mg/kg/day and/or sorafenib 30 mg/kg/day, oral): slightly better than that of ZXX-4
6 | C-Reactive Protein (CRP) 201–206 acetate [ZXX-17] | less than 50% | reduced to different degrees | significantly prolonged | 52 ± 9 nM | 
7 | LSKL [ZXX-2] | less than 50% | reduced to different degrees | significantly prolonged | 68 ± 12 nM | 
8 | Saralasin acetate [ZXX-1] |  |  |  | 175 ± 18 nM | 
9 | [Sarl, Ile8]-Angiotensin II acetate [ZXX-4] | less than 50% | reduced to different degrees | significantly prolonged | 23 ± 5 nM | survival after single dose (BALB/c nude mice): survived; platelet aggregation rate compared with dabigatran etexilate (platelets): not significant; relative activity on thrombin-induced proliferation [1]: highest activity, which was comparable to dabigatran etexilate; thrombin time (thrombin [2]; 180 s = upper limit of detection): 180 s; HepG2 tumor growth (HepG2 tumor; 50 mg/kg/day oral): inhibited HepG2 tumor growth; number of lung metastatic nodules (HepG2 tumor; ZXX-4 50 mg/kg/day and/or sorafenib 30 mg/kg/day, oral, Indian ink staining): com-parable to that of sorafenib; also recorded: reduced tumor metastasis; effect on the efficacy of sorafenib (HepG2 tumor; ZXX-4 50 mg/kg/day with sorafenib 30 mg/kg/day, oral): enhanced
